Measurements as given in the NIST ThermoML archive (doi:10.1021/je201299u).
Numbers after ± are expanded uncertainties.

Conditions: Liquid, Ebulliometric method (Recirculating still)

vapor or sublimation pressure (110.01 K) [kPa]	vapor or sublimation pressure (112.98 K) [kPa]	vapor or sublimation pressure (114.99 K) [kPa]	vapor or sublimation pressure (115.07 K) [kPa]	vapor or sublimation pressure (117 K) [kPa]	vapor or sublimation pressure (118.99 K) [kPa]	vapor or sublimation pressure (120.11 K) [kPa]	vapor or sublimation pressure (120.96 K) [kPa]	vapor or sublimation pressure (123.01 K) [kPa]	vapor or sublimation pressure (130.15 K) [kPa]	vapor or sublimation pressure (135.09 K) [kPa]	SMILES
88.2 ± 1.4	112.74 ± 1.4	132.11 ± 1.4	134.08 ± 1.3	153.92 ± 1.4	178.11 ± 1.5	194.65 ± 1.3	204.78 ± 1.5	235.61 ± 1.6	374.77 ± 1.4	496.11 ± 1.4	C [methane]
1466.7 ± 6	1735.2 ± 7	1936 ± 7.8		2153.3 ± 8.7	2385.7 ± 9.6		2633.9 ± 11	2913 ± 12			N#N [nitrogen]
